# Biological target: GST tagged truncated human mutant G2019S LRRK2 (Homo sapiens (Human), UniProt Q5S007, G2019S)
# Experiment: LRRK2 Km ATP LanthaScreen Assay
# Type: biochemical
# Conditions: G2019S LRRK2, 134 μM ATP (Km ATP), mean values
# Summary of the method: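 Enzyme (GST-tagged, truncated) was preincubated with compound for 15 min at RT in 50 mM Tris pH 8.5, 10 mM MgCl2, 0.01% Brij-35, 1 mM EGTA, 2 mM DTT and 0.05 mM orthovanadate. Fluorescein-LRRKtide and 134 μM ATP (Km) were then added for 90 min. EDTA and Tb-anti-pERM antibody stopped the reaction; the TR-FRET 520/495 ratio gave 4-parameter IC50s, reported as mean pIC50.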
# GST tagged truncated human mutant G2019S LRRK2, sequence (Q5S007 970-2527 G2019S): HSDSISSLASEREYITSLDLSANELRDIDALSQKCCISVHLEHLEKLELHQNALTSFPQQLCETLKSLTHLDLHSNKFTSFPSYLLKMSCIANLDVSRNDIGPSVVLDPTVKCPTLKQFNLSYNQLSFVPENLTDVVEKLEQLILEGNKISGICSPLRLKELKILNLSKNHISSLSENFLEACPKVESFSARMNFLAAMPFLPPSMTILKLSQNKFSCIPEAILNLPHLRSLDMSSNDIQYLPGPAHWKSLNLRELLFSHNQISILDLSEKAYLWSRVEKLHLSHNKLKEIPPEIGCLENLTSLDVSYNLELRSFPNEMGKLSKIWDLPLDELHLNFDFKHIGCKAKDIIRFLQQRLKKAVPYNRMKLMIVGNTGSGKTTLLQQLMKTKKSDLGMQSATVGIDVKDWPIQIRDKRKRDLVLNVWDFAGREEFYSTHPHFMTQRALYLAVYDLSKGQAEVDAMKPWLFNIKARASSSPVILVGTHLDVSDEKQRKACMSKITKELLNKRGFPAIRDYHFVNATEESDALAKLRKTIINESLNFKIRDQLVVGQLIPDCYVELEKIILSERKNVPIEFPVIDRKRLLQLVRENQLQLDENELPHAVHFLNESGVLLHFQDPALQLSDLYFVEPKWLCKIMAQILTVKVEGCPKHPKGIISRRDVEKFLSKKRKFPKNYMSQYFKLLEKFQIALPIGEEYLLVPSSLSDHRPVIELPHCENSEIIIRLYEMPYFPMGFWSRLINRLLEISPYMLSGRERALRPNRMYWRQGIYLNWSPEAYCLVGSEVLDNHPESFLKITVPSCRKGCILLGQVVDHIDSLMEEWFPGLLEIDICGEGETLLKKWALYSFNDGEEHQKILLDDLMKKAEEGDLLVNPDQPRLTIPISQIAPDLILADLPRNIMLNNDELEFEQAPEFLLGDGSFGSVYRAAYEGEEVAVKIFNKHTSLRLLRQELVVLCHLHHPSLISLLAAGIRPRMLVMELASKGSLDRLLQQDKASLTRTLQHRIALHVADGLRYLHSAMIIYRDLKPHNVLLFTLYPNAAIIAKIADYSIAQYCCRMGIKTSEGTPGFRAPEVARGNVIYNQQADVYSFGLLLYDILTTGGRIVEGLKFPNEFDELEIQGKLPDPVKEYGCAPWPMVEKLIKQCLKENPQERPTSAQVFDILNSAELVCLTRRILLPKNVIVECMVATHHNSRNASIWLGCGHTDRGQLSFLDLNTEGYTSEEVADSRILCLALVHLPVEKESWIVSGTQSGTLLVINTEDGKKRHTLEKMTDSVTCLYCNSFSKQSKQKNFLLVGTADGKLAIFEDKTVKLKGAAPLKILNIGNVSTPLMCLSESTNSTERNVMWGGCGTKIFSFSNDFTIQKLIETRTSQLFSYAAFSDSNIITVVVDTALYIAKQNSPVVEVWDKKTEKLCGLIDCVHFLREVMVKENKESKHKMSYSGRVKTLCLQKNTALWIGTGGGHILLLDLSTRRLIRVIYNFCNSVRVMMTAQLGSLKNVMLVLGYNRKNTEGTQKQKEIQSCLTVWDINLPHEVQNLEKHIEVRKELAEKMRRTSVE
row,Compound,LRRK2 pIC50
1,"CC1(n2ncc(Nc3ncc4cc(Cl)c(C5CCN(C6CS(=O)(=O)C6)CC5)cc4n3)c2Cl)CC1 [Ex-8.12, 3-(4-(6-chloro-2-((5-chloro-1-(1-methylcyclopropyl)-1H-pyrazol-4-yl)amino)quinazolin-7-yl)piperidin-1-yl)thietane 1,1-dioxide]",8.92
2,"CC1(n2ncc(Nc3ncc4cc(Cl)c(C5CCN(CCC#N)CC5)cc4n3)c2Cl)CC1 [Ex-8.13, 3-[4-(6-chloro-2-{[5-chloro-1-(1-methylcyclopropyl)-1H-pyrazol-4-yl]amino}quinazolin-7-yl)piperidin-1-yl]propanenitrile]",>9.20
3,"CN1CCC(c2cc3nc(Nc4cnn(C5(C)CC5)c4Cl)ncc3cc2Cl)CC1 [Ex-8.14, 6-chloro-N-[5-chloro-1-(1-methylcyclopropyl)-1H-pyrazol-4-yl]-7-(1-methylpiperidin-4-yl)quinazolin-2-amine]",>9.20
4,"CC1(N2CCC(c3cc4nc(Nc5cnn(C6(C)CC6)c5Cl)ncc4cc3Cl)CC2)COC1 [Ex-8.15, 6-chloro-N-[5-chloro-1-(1-methylcyclopropyl)-1H-pyrazol-4-yl]-7-[1-(3-methyloxetan-3-yl)piperidin-4-yl]quinazolin-2-amine]",>9.20
5,"[2H]C1([2H])OC([2H])([2H])C1N1CCC(c2cc3nc(Nc4cnn(C5CC5)c4Cl)ncc3cc2Cl)CC1 [Ex-8.16, 6-chloro-N-(5-chloro-1-cyclopropyl-1H-pyrazol-4-yl)-7-(1-(oxetan-3-yl-2,2,4,4-d4)piperidin-4-yl)quinazolin-2-amine]",9.18
6,"COC1CC(Cn2ncc(Nc3ncc4cc(Cl)c(C5CCN(C6COC6)CC5)cc4n3)c2Cl)C1 (stereo not drawn) [Ex-8.17, 6-chloro-N-{5-chloro-1-[(3-methoxycyclobutyl)methyl]-1H-pyrazol-4-yl}-7-[1-(oxetan-3-yl)piperidin-4-yl]quinazolin-2-amine]",>9.20
7,"N#CC1(Cn2ncc(Nc3ncc4cc(Cl)c(C5CCN(C6COC6)CC5)cc4n3)c2Cl)CC1 [Ex-8.24, 1-{[5-chloro-4-({6-chloro-7-[1-(oxetan-3-yl)piperidin-4-yl]quinazolin-2-yl}amino)-1H-pyrazol-1-yl]methyl}cyclopropane-1-carbonitrile]",8.92
8,"OC1(Cn2ncc(Nc3ncc4cc(Cl)c(C5CCN(C6COC6)CC5)cc4n3)c2Cl)CCC1 [Ex-8.26, 1-{[5-chloro-4-({6-chloro-7-[1-(oxetan-3-yl)piperidin-4-yl]quinazolin-2-yl}amino)-1H-pyrazol-1-yl]methyl}cyclobutan-1-ol]",8.78
9,"CC1(N2CCC(c3cc4nc(Nc5cnn(C67CC(C6)C7)c5Cl)ncc4cc3Cl)CC2)COC1 [Ex-8.38, N-[1-(bicyclo[1.1.1]pentan-1-yl)-5-chloro-1H-pyrazol-4-yl]-6-chloro-7-[1-(3-methyloxetan-3-yl)piperidin-4-yl]quinazolin-2-amine]",>9.20
10,"COCC12CC(n3ncc(Nc4ncc5cc(Cl)c(C6CCN(C7(C)COC7)CC6)cc5n4)c3Cl)(C1)C2 [Ex-8.39, 6-chloro-N-{5-chloro-1-[3-(methoxymethyl)bicyclo[1.1.1]pentan-1-yl]-1H-pyrazol-4-yl}-7-[1-(3-methyloxetan-3-yl)piperidin-4-yl]quinazolin-2-amine]",8.98
11,COC[C@]12C[C@](n3ncc(Nc4ncc5cc(Cl)c(C6CCN(C7(C)COC7)CC6)cc5n4)c3Cl)(C1)C2 [Ex-8.40],>9.20
12,"(3S,4S) or (3R,4R) 6-chloro-N-(5-chloro-1-cyclopropyl-1H-pyrazol-4-yl)-7-(3-fluoropiperidin-4-yl)quinazolin-2-amine [Ex-4.1]",9.08

# Source: US12540131B2 (Merck Sharp & Dohme LLC, priority 2019, dated 2026)
